Reference: EP4603105A1, “PHARMACEUTICAL COMPOSITION CONTAINING CYCLIC COMPOUND HAVING SELECTIVE KRAS INHIBITORY EFFECT AGAINST HRAS AND NRAS” (CHUGAI SEIYAKU KABUSHIKI KAISHA, priority 2022, dated 2024)
*1 amine or outer side, *2 acyl side, *3 side chain or, on linkers, in order; H or OH if unused. Where a SMILES comes first, the peptide text is derived from it. Bridges are numbered along the chain shown (N, C = ends). [ ]: non-standard residue; d: D form. The star is where a group is joined. hPhe(3-Cl-4-CF3) = N[C@@H](CCc1ccc(C(F)(F)F)c(Cl)c1)C(=O)O; X26 = CCCN([C@@H](Cc1ccc(F)cc1)C(=O)[*:2])[*:1]; NMeGly(cPent) = CN[C@H](C(=O)O)C1CCCC1; NMeD = CN[C@@H](CC(=O)O)C(=O)O; NMeL = CN[C@@H](CC(C)C)C(=O)O; Morpholide = C1CN(*)CCO1; Ac5c = NC1(C(=O)O)CCCC1; Sar = CNCC(=O)O

Experiments:
HRAS wild-type protein = HRAS wild-type protein (Homo sapiens, UniProt P01112); assay: Binding to HRAS by surface plasmon resonance (SPR), KD and KD ratio to KRAS
Sequence of HRAS wild-type protein (P01112 whole entry): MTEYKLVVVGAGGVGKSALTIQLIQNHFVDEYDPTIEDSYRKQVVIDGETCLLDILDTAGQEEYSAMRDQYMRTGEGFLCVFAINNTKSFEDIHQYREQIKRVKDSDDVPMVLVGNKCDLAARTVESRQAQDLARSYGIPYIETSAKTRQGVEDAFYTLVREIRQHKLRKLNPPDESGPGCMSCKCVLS
Summary of the method: (§1)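 Each cycle, GDP-bound biotin-Avi RAS was captured (~100–300 RU), compound concentrations were injected low to high for 75 s each at 100 µL/min, then the chip was regenerated. Buffer: HBS pH 7.4, 10 mM MgCl2, 10 µM GDP, 1 mM DTT, 4% DMSO; 30°C. KD from a 1:1 binding model.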

[1] = biological target: GDP-bound NRAS wild-type protein (Homo sapiens, UniProt P01111); assay: Binding to NRAS by surface plasmon resonance (SPR), KD and KD ratio to KRAS
Sequence of GDP-bound NRAS wild-type protein (P01111 whole entry): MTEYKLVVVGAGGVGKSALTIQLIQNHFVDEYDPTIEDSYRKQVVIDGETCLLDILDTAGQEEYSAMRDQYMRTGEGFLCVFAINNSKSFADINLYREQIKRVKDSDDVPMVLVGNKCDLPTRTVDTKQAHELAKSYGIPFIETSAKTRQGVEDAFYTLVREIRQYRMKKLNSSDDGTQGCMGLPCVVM
Summary of the method: as §1

[2] = test system: human lung cancer strain NCI-H441; assay type: cell-based
Summary of the method: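 Signal came from […] measured per well once the reagent was added. Beforehand, cells were cultured at 37°C and 5% carbon dioxide on a compound series serially diluted in dimethyl sulfoxide.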

[3] = ratio of KD for HRAS wild-type protein to KD for KRAS
[4] = ratio of KD for GDP-bound NRAS wild-type protein to KD for KRAS
[5] = ratio of KD value for HRAS wild-type protein to KD value for KRAS (SPR)
[6] = ratio of KD value for GDP-bound NRAS wild-type protein to KD value for KRAS (SPR)

Row | SMILES | HRAS /KRAS (HRAS wild-type protein; [3]) | NRAS /KRAS [1, 4] | IC50 [2] [nM] | HRAS /KRAS (HRAS wild-type protein; ratio of the KD value with respect to HRAS wild-type protein to the KD value with respect to KRAS) | NRAS /KRAS ([1]; ratio of the KD value with respect to GDP-bound NRAS wild-type protein to the KD value with respect to KRAS) | HRAS /KRAS (HRAS wild-type protein; [5]) | NRAS /KRAS [1, 6]
1 | CCO[C@@H]1C[C@H]2C(=O)NC3(CCC3)C(=O)N(C)[C@@H](C3CCCC3)C(=O)N(C)[C@H](C(=O)N(C)C)CC(=O)N(C)[C@@H](CC)C(=O)N[C@@H]([C@@H](C)CC)C(=O)N(C)CC(=O)N(C)[C@H]3CCCCCN(C3=O)[C@@H](Cc3ccc(F)c(OC)c3)C(=O)N(C)CC(=O)N[C@@H](CCc3cc(F)c(C(F)(F)F)c(F)c3)C(=O)N2C1 [PP0915] | B (a compound having 3 or more and less than 10 is denoted as B) | B (a compound having 3 or more and less than 10 is denoted as B) | 37.6 | – | – | – | –
2 | CC[C@H](C)[C@@H]1NC(=O)[C@H](CC(C)C)N(C)C(=O)C[C@@H](C(=O)N2CCOCC2)N(C)C(=O)[C@H](C2CCCC2)N(C)C(=O)C2(CCCC2)NC(=O)[C@@H]2CCCN2C(=O)[C@H](CCc2ccc(C(F)(F)F)c(Cl)c2)NC(=O)CN(C)C(=O)[C@H](Cc2ccc(OC(F)(F)F)cc2)N2CCCC[C@@H](C2=O)N(C)C(=O)CN(C)C1=O [PP0536] | – | – | 21.8 | B (a compound having 3 or more and less than 10 is denoted as B) | B (a compound having 3 or more and less than 10 is denoted as B) | – | –
3 | CCCN1C(=O)CN(C)C(=O)CN(C)C(=O)[C@H]([C@@H](C)CC)NC(=O)[C@H](CC(C)C)N(C)C(=O)C[C@@H](C(=O)N2CCOCC2)N(C)C(=O)[C@H](C2CCCC2)N(C)C(=O)C2(CCCC2)NC(=O)[C@@H]2CCCN2C(=O)[C@H](CCc2ccc(C(F)(F)F)c(Cl)c2)NC(=O)CN(C)C(=O)[C@@H]1Cc1ccc(F)cc1 [PP0214] ([NMeL]I[Sar][Sar][X26][Sar][hPhe(3-Cl-4-CF3)]P[Ac5c][NMeGly(cPent)][NMeD]-Morpholide; lactam N-11) | C (A compound having a KD ratio of 0.1 or more and less than 3 is denoted as C) | B (a compound having 3 or more and less than 10 is denoted as B) | 5.4 | – | – | – | –
4 | CC[C@H](C)[C@@H]1NC(=O)[C@H](COC)N(C)C(=O)C[C@@H](C(=O)N2CCOCC2)N(C)C(=O)[C@H](C2CCCC2)N(C)C(=O)C2(CCC2)NC(=O)[C@@H]2CC(F)(F)CN2C(=O)[C@H](CCc2cc(F)c(C(F)(F)F)c(F)c2)NC(=O)CN(C)C(=O)[C@H](Cc2ccc(C(F)(F)F)cc2)N2CCCCC[C@@H](C2=O)N(C)C(=O)[C@@H]2CCN2C1=O [PP0866] | B (a compound having 3 or more and less than 10 is denoted as B) | B (a compound having 3 or more and less than 10 is denoted as B) | 197 | – | – | – | –
5 | CCC[C@H]1C(=O)N[C@@H]([C@@H](C)CC)C(=O)N(C)CC(=O)N(C)[C@H]2C/C=C\CCN(C2=O)[C@@H](Cc2ccc(C)cc2)C(=O)N(C)CC(=O)N[C@@H](CCc2cc(F)c(C(F)(F)F)c(F)c2)C(=O)N2C[C@H](C)C[C@H]2C(=O)N(C)C2(CCC2)C(=O)N(C)[C@@H](C2CCCC2)C(=O)N(C)[C@H](C(=O)N(C)C)CC(=O)N1C [PP1799] | – | – | 7.6 | – | – | B (a compound having 3 or more and less than 10 is denoted as B) | B (a compound having 3 or more and less than 10 is denoted as B)
6 | CCCOC[C@H]1C(=O)N[C@@H]([C@@H](C)CC)C(=O)N(C)CC(=O)N(C)[C@H]2C/C=C\CCN(C2=O)[C@@H](Cc2ccc(C(F)(F)F)cc2)C(=O)N(C)CC(=O)N[C@@H](CCc2cc(F)c(C(F)(F)F)c(F)c2)C(=O)N2C[C@H](F)C[C@H]2C(=O)NC2(CC(C)(C)C2)C(=O)N(C)[C@@H](C2CCCC2)C(=O)N(C)[C@H](C(=O)N(C)CC)CC(=O)N1C [PP1697] | – | – | 3.6 | – | – | A (a compound having 10 or more and less than 20 is denoted as A) | A (a compound having 10 or more and less than 20 is denoted as A)
